Columns and labels:
[1] = tested on: A431 squamous cell carcinoma xenografts; test: Tumor growth of xenografted mouse model; assay type: in vivo, nude mice
Description: Experiments were carried out using female athymic Swiss nude mice, 8–10 weeks old (Charles River, Calco, Italy). Mice were maintained in laminar flow rooms keeping temperature and humidity constant. Mice had free access to food and water. Experiments were approved by the Ethics Committee for Animal Experimentation of the Istituto Nazionale Tumori of Milan according to institutional guidelines. Epidermoid carcinoma cells, A-431 suspended in culture media were subcutaneously injected on the back of mice. When tumors were just palpable, the mice were randomly divided into two groups: control and compound-treated. Each group was constituted by 8 mice. Saline (0.9% NaCl) or compound solution (5 or 10 mg/kg, respectively) was i.p. administered daily during 3 weeks, to both groups. Tumor volume was assessed using calipers and determined according to the formula (d)^2xD/2.

NCI-H460 [2] = test: Cellular proliferation, BrdU incorporation assay; assay type: cell-based, human; details: 48 h
Description: NCI-H460 cells were plated in 6-well plates (1 × 10^5 cells/well) in RPMI-1640 medium with UltraGlutamine I and 25 mM Hepes (Lonza) supplemented with 10% FBS (PAA) at 37 °C in a humidified incubator with 5% CO2 for 24 h. […] These concentrations corresponded respectively to 5.2 μM and 7.8 μM for compound 5 and to 3.2 μM and 4.8 μM for compound 8. Cells were also incubated with medium only (Blank) or with the vehicle (solvent, H2O), corresponding to the highest concentration used when testing the compounds. Following treatment with the compounds, cells were further processed as follows. Following 47 h treatment, cells were further incubated with 10 μM bromodeoxyuridine (BrdU; Sigma) for 1 h. Cells were then trypsinized and fixed in 4% paraformaldehyde (in PBS) for 30 min. Cytopsins were prepared and a 20 min denaturation step was carried out by incubating slides in 2 M HCl. Following incubation with mouse anti-BrdU primary antibody (1/10, Dako) for 1 h at room temperature (RT), cells were further incubated with anti-mouse-Ig-FITC (1/100, Dako) for 30 min, at RT [21]. Slides were then mounted with Vectashield mounting medium with DAPI (Vector Laboratories). The percentage of BrdU incorporating cells was determined by counting a minimum of 500 cells per slide (except for one experiment in which due to technical difficulties less cells were counted when testing the compound 8) using a fluorescence microscope (DM2000; Leica, Wetzlar, Germany ).

NCI-H460 [3] = test: Cell-counting assay, 72-h drug exposure; assay type: cell-based; details: Homo sapiens, read-out: Cell Growth Inhibitory Activity NCI-H460 IC50 72 h
Text: For the cytotoxic activity studies and determination of GI50 concentrations in three different tumor cell lines, the cell culture conditions are described in Section 3.5. For the studies on the effect on % viable cells, cell cycle, cellular proliferation, and apoptosis, culture conditions are described in Section 3.6.1. For the remaining studies, the epithelial carcinoma cell line A431 and the non-small cell lung carcinoma cell line NCI-H460 were routinely grown in RPMI 1640 (Lonza, Vierviers, Belgium), supplemented with 10% (v/v) heat-inactivated fetal bovine serum (FBS, GIBCO, Invitrogen, Paisley, UK). The human peritoneal mesothelioma cell line STO was kindly provided by Dr. N. Zaffaroni (IRCCS Istituto Nazionale Tumori, Milan, Italy) and grown in 50/50 DMEM-Ham’s F12 medium (Lonza, Vierviers, Belgium), supplemented with 10% (v/v) heat-inactivated foetal bovine serum and 2 mM L-glutamine (L-Gln). All cell lines were maintained at 37 °C in a 5%/95% CO2/air atmosphere. All the compounds tested were freshly prepared by dissolving powder in dimethylsulfoxide (DMSO) (BDH Prolabo, Milan, Italy) and following dilution in culture medium. Cells were incubated with drugs for 48 h or 72 h (unless otherwise stated) at 37 °C in culture medium supplemented with 10% (v/v) heat-inactivated FBS; drug concentrations used for each assay and duration of treatments are reported in Legends to Figures.
Cellular sensitivity to drugs was evaluated by a cell-counting assay after 72-h drug exposure. Cells in the logarithmic phase of growth were seeded in duplicate into 6-well plates. Twenty-four hours after seeding, the drug was added to the medium. Cells were harvested 72 h after drug exposure and counted with a cell counter.

HSP90 = target: T1, HSP90 (Homo sapiens, UniProt P07900); test: HSP90 binding, fluorescence polarization with GM-FITC; details: displacement of GM-FITC 5 nM, 30 nM HSP90, 4 °C, 4 h; read-out: Binding HSP90 (FP) IC50
T1 construct: purchased Stressgen SPP-776
Description: GM-FITC Geldanamycin-fluorescein-5-isothiocyanate (working concentration: 1–400 nM), supplied by Invivogen (06C23-MT, San Diego, CA, USA), was previously dissolved in DMSO to obtain 10 mM stock solutions and kept at −20 °C until use. […] The compounds were previously dissolved in DMSO to obtain stock solutions and kept at −20 °C. The day of experiment, the compounds were prepared by serial dilutions in assay buffer (HFB) containing 20 mM HEPES (K) pH 7.3, 50 mM KCl, 5 mM MgCl2, 20 mM Na2MoO4 and 0.01% NP40. Before each use, 0.1 mg/mL Bovine Gamma globulin and 2 mM DTT were freshly added. […] The plate was mixed on a shaker at 4 °C for 4 h, and the FP values in mP (millipolarization units) were recorded. […] Curve fitting was performed using Prism GraphPad software program (GraphPad software, Inc., San Diego, CA, USA).

Row | IC50 (HSP90) [µM] | Structure (SMILES) | Inhibition of tumor growth vs control group ([1]; 5 mg/kg i.p. daily for three weeks) | Inhibition of tumor growth vs control group ([1]; 10 mg/kg i.p. daily for three weeks) | Manifestations of toxicity (death and body weight loss) ([1]; 5 and 10 mg/kg i.p., three weeks) | Percentage of BrdU-incorporating cells (NCI-H460 [2]; 1.5× GI50 (7.8 μM), untreated cells 32%) [%] | Percentage of BrdU-incorporating cells (NCI-H460 [2]; GI50 (5.2 μM), untreated cells 32%) [%] | IC50 (NCI-H460 [3]) [µM] | Percentage of BrdU-incorporating cells (NCI-H460 [2]; 1.5× GI50 (4.8 μM), untreated cells 31%) [%] | Percentage of BrdU-incorporating cells (NCI-H460 [2]; GI50 (3.2 μM), untreated cells 31%) [%]
1 | – | O=c1c2ccccc2oc2c[n+](Cc3ccccc3)ccc12.[Br-] [Compound 5, 2-Benzyl-10-oxo-10H-9-oxa-2-azonia-anthracene bromide] | considerable inhibition of tumor growth | accentuated this difference to statistically significant values | no evident manifestations of toxicity | 22 | 25 | 4.8 ± 0.1 | – | –
2 | 3.7 ± 0.03 | O=c1c2ccccc2sc2c[n+](Cc3ccccc3)ccc12.[Br-] [Compound 8, 2-Benzyl-5-oxo-5H-thiochromeno[2,3-c]pyridin-2-ium bromide] | – | – | – | – | – | – | 21 | 26

Reference: article PMC6017909, “Synthesis and Evaluation of the Tumor Cell Growth Inhibitory Potential of New Putative HSP90 Inhibitors” (Molecules : A Journal of Synthetic Chemistry and Natural …, 2018)
